Results on one molecule are retold here after patent US20110190245A1, “NANOSUSPENSION WITH ANTIFUNGAL MEDICATION TO BE ADMINISTERED VIA INHALATION WITH IMPROVED IMPURITY PROFILE AND SAFETY” (priority 2008, published 2011).

Structures are written as SMILES.

The assay concerns A. fumigatus. Kind of assay: Second experiment: survival of immune-suppressed balb-c mice infected intranasally with A. fumigatus conidia. The assay is classed as in vivo, Aspergillus fumigatus. Set-up: animals that had died by day 6 after infection: dose or concentration left out as unconfirmed. As to the method: In a second experiment, male balb-c mice were utilized. The animals of all groups were immune-suppressed using 100 mg/kg body weight cyclophosphamide at day −4, −1, 0, 2, 5 and 8. On day −1, the animals received 100 mg/kg cyclophosphamide i.p. and 200 mg/kg cortisone acetate subcutaneous (24±2 hours before infection). Additionally, the animals were treated by inhalation of itraconazole using the same inhalation device as described in the study above. At day 0, the animals were infected intranasally with 2.5×104 A. fumigatus conidia.
Additionally, one group of mice used as reference group was treated with Amphotericin B i.p. using 3 mg/kg daily.
The drug effect was assessed as the number of surviving animals. As expected, 9 out of 12 control animals had already died on day 6 after infection and the remaining animals died with the exception of one until day 9. For animals treated as decribed above, i.e. using the 10% aerosol of itraconazole twice daily, a strong effect was seen.

For `C[C@@H]1[C@H](O)[C@@H](C)/C=C/C=C/C=C/C=C/C=C/C=C/C=C/[C@H](O[C@@H]2O[C@H](C)[C@@H](O)[C@H](N)[C@@H]2O)C[C@@H]2O[C@](O)(C[C@@H](O)C[C@@H](O)[C@H](O)CC[C@@H](O)C[C@@H](O)CC(=O)O[C@H]1C)C[C@H](O)[C@H]2C(=O)O` [Amphothericin B, Amphotericin B], the “animals that had died by day 6 after infection” value (12 per group, control animals) was 3. The “animals that had died at the end of the observation period” value (14 days observation, itraconazole 10% aerosol twice daily, Amphotericin B i.p. 3 mg/kg daily) is 9 out of 12.
